According to US20190337889A1, “COMPOSITIONS AND METHODS OF REGULATING CANCER RELATED DISORDERS AND DISEASES” (ONCO THERAPIES LLC, priority 2016, published 2019):

Tests used:
HepG2 cells [1] = experiment: XTT cell death assay, HepG2 hepatocarcinoma cells; assay type: cell-based, human; conditions: dilutions 0.01 nM to 200 μM, usually 24 or 48 hours; for minimal effective concentration: Homo sapiens, HepG2, *Greater than 50% inhibition, read-out: HepG2* (liver cancer): concentration with greater than 50% inhibition
Procedure: (§1) Maintenance and Treatment of Cell Lines. Human HepG2 hepatocarcinoma cells and human U87MG glioma cells (ATCC, Manassas, Va.) were maintained in EMEM medium supplemented with 10% FBS (Hyclone, Logan, Utah). The human 1321N1 astrocytoma cells (European Collection of Cell Cultures, Sigma-Aldrich) were cultured in Dulbecco's modified Eagle's medium supplemented with 10% FBS and 2 mM L-glutamine. Human prostate carcinoma cell line PC3 was cultured in F-12K medium (Life Technologies) supplemented 10% FBS. Human lung carcinoma cell line A549 was cultured in DMEM+2 mM glutamine+10% FBS. ER positive, estrogen independent for growth MCF7/LCC9 cell line was cultured in IMEM (Biofluids) supplemented with 5% charcoal stripped calf serum. Medulloblastoma cell line DAOY was cultured in Eagle's MEM supplemented with 10% FBS.
(§2) Cell death assay. The extent of cell death and toxicity of the compounds was tested by XTT assay. The cells were plated in their respective media in 96-well plates. The compounds and were added in dilutions ranging from 0.01 nM to 200 μM and for control DMSO to 1% was used. […] For XTT assay first the medium in the wells was replaced with 200 μs of fresh phenol-red free medium. Then 50 μls of XTT solution with PMS was added to the wells. The XTT solution was made adding 0.02% phenazine methosulfate (Sigma-Aldrich #P9625) to 1 mg/ml XTT sodium salt made up in phenol-red free RPMI (Sigma-Aldrich #X4636).

1321N1 cells = experiment: XTT cell death assay, 1321N1 astrocytoma cells; assay type: cell-based; conditions: Homo sapiens, *Greater than 50% inhibition, dilutions 0.01 nM to 200 μM, usually 24 or 48 hours, read-out: 1321N* (brain cancer): concentration with greater than 50% inhibition
Procedure: as §1, §2

A549 = experiment: XTT cell death assay, A549 lung carcinoma cells; assay type: cell-based; conditions: Homo sapiens, # = 200 uM not tested, read-out: A549: concentration with effect on cancer cells
Procedure: (§3) Maintenance and Treatment of Cell Lines. Human HepG2 hepatocarcinoma cells and human U87MG glioma cells (ATCC, Manassas, Va.) were maintained in EMEM medium supplemented with 10% FBS (Hyclone, Logan, Utah). The human 1321N1 astrocytoma cells (European Collection of Cell Cultures, Sigma-Aldrich) were cultured in Dulbecco's modified Eagle's medium supplemented with 10% FBS and 2 mM L-glutamine. Human prostate carcinoma cell line PC3 was cultured in F-12K medium (Life Technologies) supplemented 10% FBS. Human lung carcinoma cell line A549 was cultured in DMEM+2 mM glutamine+10% FBS. ER positive, estrogen independent for growth MCF7/LCC9 cell line was cultured in IMEM (Biofluids) supplemented with 5% charcoal stripped calf serum. Medulloblastoma cell line DAOY was cultured in Eagle's MEM supplemented with 10% FBS. All cell lines except […] were cultured at 37° C. in 5% CO2, and the medium was replaced every 2-3 days. MDA-MB-231 was grown in Leibovitz's L-15 medium with 10% FBS without CO2 supplementation.
as §2, with “#X4636). The plate was incubated for 4 hours at 37° C. and then the absorbance was read at a wavelength of 490 nm.” for “#X4636).”

MDA-MB-231 = experiment: XTT cell death assay, MDA-MB-231 cells; assay type: cell-based; conditions: Homo sapiens, # = 200 uM not tested, read-out: MDA-MB-231: concentration with effect on cancer cells
Procedure: as §3
as §2, with “#X4636). The plate was incubated for 4 hours at 37° C. and then the absorbance was read at a wavelength of 490 nm.” for “#X4636).”

A549 xenograft = experiment: Zebrafish xenograft assay with implanted A549 cells; assay type: in vivo; conditions: zebrafish embryos, 100 uM, 4 days after implantation, n=10 to 15
Procedure: Zebrafish xenograft assay. Zebrafish embryos with implanted A549 cells were imaged within 6 hours of cell injection (day 0) and treated with compounds. At 4 days post injection (day 4) the embryos were imaged again. The area of fluorescence due to the labeled cells was measured using Image J at day 0 (area 0) and day 4 (area 4). The change in area was calculated by subtracting area 0 from area 4 (=d area). D area was then normalized for the size of the initial tumor by dividing d area by area 0 (=d area/area 0).

MCF7/LCC9 cell line = experiment: XTT cell death assay, MCF7/LCC9 cells; assay type: cell-based; conditions: Homo sapiens, # = 200 uM not tested, read-out: LCC-9: concentration with effect on cancer cells
Procedure: as §3
as §2, with “#X4636). The plate was incubated for 4 hours at 37° C. and then the absorbance was read at a wavelength of 490 nm.” for “#X4636).”

PC3 cells = experiment: XTT cell death assay, PC3 prostate carcinoma cells; assay type: cell-based; conditions: Homo sapiens, PC-3, # = 200 uM not tested, read-out: PC3: concentration with effect on cancer cells
Procedure: as §3
as §2, with “#X4636). The plate was incubated for 4 hours at 37° C. and then the absorbance was read at a wavelength of 490 nm.” for “#X4636).”

DAOY = experiment: XTT cell death assay, DAOY medulloblastoma cells; assay type: cell-based; conditions: Homo sapiens, # = 200 uM not tested, read-out: DAOY: concentration with effect on cancer cells
Procedure: as §3
as §2, with “#X4636). The plate was incubated for 4 hours at 37° C. and then the absorbance was read at a wavelength of 490 nm.” for “#X4636).”

HepG2 cells [2] = experiment: Caspase assay (Caspase-Glo 3/7) on HepG2 cells; assay type: cell-based, human; conditions: n=4; for caspase activity (fluorescence ratio to untreated cells): 48 hours after addition, 100 uM
Procedure: Caspase Assay. Caspase assay was conducted by using the Promega Caspase-Glo 3/7 kit. 100 ul of caspase-Glo 3/7 reagent was added to each well of a white walled 96-well plate containing 100 ul of blank, negative control cells or treated cells in culture medium. The contents of the wells were mixed gently and incubated at room temperature for 30 minutes to 3 hours. The luminescence of each sample was read in a luminometer.

| Compound | minimal effective concentration (HepG2 cells [1]) [µM] | minimal effective concentration (1321N1 cells) [µM] | minimal effective concentration (A549) [µM] | minimal effective concentration (MDA-MB-231) [µM] | area of A549 xenograft implant (A549 xenograft) | minimal effective concentration (MCF7/LCC9 cell line) [µM] | minimal effective concentration (PC3 cells) [µM] | minimal effective concentration (DAOY) [µM] | HepG2* (liver cancer): concentration with greater than 50% inhibition (HepG2 cells [1]) | caspase activity (fluorescence ratio to untreated cells) (HepG2 cells [2]) | caspase activation (fluorescence ratio to untreated cells) (HepG2 cells [2]; 48 hours, control compound at 10 uM) |
| --- | --- | --- | --- | --- | --- | --- | --- | --- | --- | --- | --- |
| COc1ccc2cc(C(C)N)ccc2c1 (stereo not drawn) [NT011] | 200 | 200 | – | – | – | – | – | – | – | – | – |
| CC(Cc1ccc2ccccc2c1)NCC(O)c1ccc(O)cc1 (stereo not drawn) [NT026, 4-(1-hydroxy-2-((1-(naphthalen-2-yl)propan-2-yl)amino)ethyl)phenol] | 100 | – | 100 | 100 | efficacy of reducing the area of xenograft significantly | 100 | 100 | 100 | – | – | – |
| CC(Cc1ccc2ccccc2c1)NCC(O)c1cccc(O)c1 (stereo not drawn) [NT023, 3-(1-hydroxy-2-((1-(naphthalen-2-yl)propan-2-yl)amino)ethyl)phenol] | 100 | – | 100 | 100 | – | 100 | 100 | 100 | – | – | – |
| Cc1ccc(CC(C)NCC(O)c2ccccc2)c2ccccc12 (stereo not drawn) [NT038, 2-((1-(4-methylnaphthalen-1-yl)propan-2-yl)amino)-1-phenylethan-1-ol] | – | – | 100 | 100 | – | 100 | – | 100 | – | – | – |
| CC(N)c1ccc2ccccc2c1 (stereo not drawn) [NT010] | 200 | 200 | – | – | – | – | – | – | – | – | – |
| CC(Cc1ccc2ccccc2c1)NCC(O)c1ccccc1 (stereo not drawn) [NT020, 2-((1-(naphthalen-2-yl)propan-2-yl)amino)-1-phenylethan-1-ol] | 100 | – | 100 | 100 | – | 100 | 100 | 100 | – | – | – |
| O=C(O)c1cc(O)c(O)c(O)c1 [NT003] | 200 | 200 | – | – | – | – | – | – | – | – | – |
| CC(Cc1cccc2ccccc12)Nc1ccc(O)cc1 (stereo not drawn) [NT017, 4-((1-(naphthalen-1-yl)propan-2-yl)amino)phenol] | – | 100 | 100 | – | – | – | 100 | 100 | No effect | – | – |
| CC(Cc1cccc2ccccc12)NCC(O)c1ccc(O)cc1 (stereo not drawn) [NT019] | 100 | – | 100 | – | – | – | 100 | 100 | – | increase in caspase activity | – |
| Cc1ccc(CC(C)NCC(O)c2cccc(O)c2)c2ccccc12 (stereo not drawn) [NT037, 3-(1-hydroxy-2-((1-(4-methylnaphthalen-1-yl)propan-2-yl)amino)ethyl)phenol] | – | – | 100 | 100 | – | 100 | – | 100 | – | – | – |
| C[C@H](CCC(=O)O)C[C@H](C)C[C@H](C)C(=O)/C=C(\O)[C@H](C)C[C@H](C)C/C=C/[C@@H](C)[C@@H](O)[C@@H](C)[C@@H](O)C[C@@H]1CC[C@@](C)([C@H]2CC[C@@](C)([C@@H](C)O)O2)O1 [ionomycin, reference compound] | – | – | – | – | – | – | – | – | – | – | did not show an increase in caspase activation |
| CC(Cc1cccc2ccccc12)NCC(O)c1ccc(O)cc1 (stereo not drawn) [NT027, 4-(1-hydroxy-2-((1-(naphthalen-1-yl)propan-2-yl)amino)ethyl)phenol] | – | – | – | 100 | efficacy of reducing the area of xenograft significantly | 100 | – | – | – | increase in caspase activity | – |
| CC(Cc1cccc2ccccc12)NCC(O)c1ccccc1O (stereo not drawn) [NT029, 2-(1-hydroxy-2-((1-(naphthalen-1-yl)propan-2-yl)amino)ethyl)phenol] | 100 | – | 100 | – | efficacy of reducing the area of xenograft significantly | 100 | 200 | 100 | – | – | – |
| Cc1ccc(CC(C)NCC(O)c2ccc(O)cc2)c2ccccc12 (stereo not drawn) [NT039, 4-(1-hydroxy-2-((1-(4-methylnaphthalen-1-yl)propan-2-yl)amino)ethyl)phenol] | – | – | 100 | – | efficacy of reducing the area of xenograft significantly | 100 | – | 100 | – | – | – |
| CC(Cc1cccc2ccccc12)NCC(O)c1cccc(O)c1 (stereo not drawn) [NT022, 3-(1-hydroxy-2-((1-(naphthalen-1-yl)propan-2-yl)amino)ethyl)phenol] | 100 | – | 100 | 100 | – | 100 | 100 | 100 | – | increase in caspase activity | – |
| Cc1ccc(CC(C)NCCc2ccc(O)cc2)c2ccccc12 (stereo not drawn) [NT034] | 200 | – | – | 100 | – | 100 | – | – | – | – | – |
| CC(N)c1cccc2ccccc12 (stereo not drawn) [NT009] | 100 | 100 | – | – | – | – | – | – | – | – | – |
| CC(Cc1ccc2ccccc2c1)NCC(O)c1ccccc1O (stereo not drawn) [NT030, 2-(1-hydroxy-2-((1-(naphthalen-2-yl)propan-2-yl)amino)ethyl)phenol] | 100 | – | 100 | 100 | – | 100 | 100 | 100 | – | – | – |
| CC(Cc1ccc2ccccc2c1)NCCc1ccc(O)cc1 (stereo not drawn) [NT021, 4-(2-((1-(naphthalen-2-yl)propan-2-yl)amino)ethyl)phenol] | 200 | – | 100 | 100 | – | 100 | 200 | 100 | – | – | – |
| CC(Cc1ccc2ccccc2c1)Nc1ccc(O)cc1 (stereo not drawn) [NT018, 4-((1-(naphthalen-2-yl)propan-2-yl)amino)phenol] | 200 | 100 | 100 | – | – | – | 100 | 100 | – | – | – |
